Measured values reported in patent US5691365A, “Nicotinic receptor antagonists in the treatment of neuropharmacological disorders” (University of Kentucky Research Foundation, priority 1995, dated 1997).
“And” between values parts separate entries of the source, which are not always exact repeats. Equal values may be shown once. “Also recorded” adds a separate entry of the source. Read-outs that look alike come from different tables or passages of the source.

Tests used:
[1] = test system: rat hypothalamic and corticotropin-releasing hormone secretion; conditions: cited from earlier work
[2] = test system: [^3 H]DA release from rat striatal slices; test: [3H]DA release assay: compound-evoked (intrinsic agonist) release; type: cell-based; set-up: key to total [3H]overflow (effect on [3H]DA release): summed increase in fractional release (sample tritium / tissue tritium)
Experimental: (§1) Biological Methods. Male Spragua-Dawley rats (150-200 g) were obtained from Harlan Laboratories (Indianapolis, Ind.) and were housed two per cage with free access to food and water in the Division of Lab Animal Resources at the College of Pharmacy at the University of Kentucky. Experimental protocols involving the animals were approved by the Institutional Animal Care and Use Committee at the University of Kentucky.
(§2) [^3 H]DA Release Assay. Rat striatal slices (500 μm thickness, 6-8 mg wet weight) were obtained as previously described (Dwoskin and Zahniser, 1986). Slices were incubated for 30 min in Krebs' buffer ([…]; 118 NaCl, 4.7 KCl, 1.2 MgCl2, 1.0 NaH2 PO4, 1.3 CaCl2, […], 11.1 glucose, 25 NaHCO3, 0.11 L-ascorbic acid nd 0.004 disodium EDTA; pH 7.4 and saturated with 95% O2 /5% CO2) in a metabolic shaker at 34°. Slices were rinsed with 15 ml of fresh buffer and incubated for an additional 30 min in fresh buffer containing 0.1 μM [^3 H]dopamine (6 slices/3 ml). Subsequently, slices were rinsed with 15 ml of fresh buffer and transferred to a glass superfusion chamber. Slices were superfused (1.0 ml/min) for 60 min with Krebs' buffer containing nomifensine (10 μm) and pargyline (10 μm) and maintained at 34° C., pH 7.4 with continual aeration (95% O2 /5% CO2). Two 5-min samples (5 ml) were collected to determine basal outflow of [^3 H]DA. N-Substituted nicotine analogues were added to the superfusion buffer after the collection of the second sample and remained in the buffer until 12 consecutive 5-min samples were collected. […] At the end of the experiment each slice was solubilized and the [^3 H] content of the tissue determined.
(§3) Radioactivity in the superfusate and tissue samples was determined by liquid scintillation spectroscopy. Fractional release for each superfusate sample was calculated by dividing the total tritium collected in each sample by the total tritium present in the tissue at the time of sample collection. Basal [^3 H]out flow was calculated from the average of the tritium collected in the two 5-min samples just before addition of the N-substituted nicotine analogue. The sums of the increase in collected tritium resulting from either exposure to the test compound or exposure to nicotine in the absence and presence of the test compound equaled total [^3 H]overflow. [^3 H]overflow was calculated by subtracting the [^3 H]outflow during an equivalent period of prestimulation from the values in samples collected during and after drug exposure. Inasmuch as the radiolabelled compounds were not separated and identified, the tritium collected in superfusate is referred to as either [^3 H]outflow or [^3 H]overflow, rather than as [^3 H]DA. [^3 H]Overflow primarily represents [^3 H]DA in the presence of nomifensine and pargyline in the superfusion buffer (Zumstein et al. 1981).

[3] = test system: S(-)nicotine (10 μM)-evoked [^3 H]DA release from rat striatal slices; type: cell-based
Experimental: as §1, §2, §3
In these experiments, the striatal slices were superfused for 60 min with various concentrations of the analogues prior to nicotine (10 μM) exposure. Antagonist activity was evaluated by comparing the nicotine-evoked [^3 H]overflow in the absence and presence of the analogues. […] The relative order of potency of the classical and pyridine-N substituted nicotine analogues for inhibition of nicotine-evoked [^3 H]DA release from rat striatal slices is illustrated in FIG. 2 by a comparison of their IC50 values.
FIG. 2. IC50 values for N-substituted analogues of nicotine, nornicotine, and cotinine to inhibit nicotine-evoked [^3 H]DA release from rat striatal slices. Inhibition produced by the classical nicotinic inhibitors, mecamylamine (MEC) and DHBE was also determined. Slices were superfused with inhibitor for 60 min […] co-superfusion with 10 μM nicotine. Inhibition was determined by comparing [^3 H]DA release in the absence and presence of various concentrations of inhibitor. IC50 values were determined using the Logit-log plot (pseudo-Hill plot). […] IC50 for each animal was determined as the intercept of the linear regression.

[4] = physchem; conditions: for pKa: d2o, 1H-NMR
Experimental: (§4) pKa Determination. A solution [1 g in 12 mls of deuterium oxide 100% atom D] of the compound under investigation was gradually acidified by drop-wise addition of a solution of DC1 to D2 O (20% wt/wt, 99.5% atom D). The pD values were measured on a Corning pH meter. For each pD value, a sample (0.8 mls) was analyzed by ^1 H-NMR on a Varian Unity 300 MHz spectrometer using sodium 3(trimethylsilyl)-2,2,3,3-d4 -propionate (TSP) as internal reference. Protonation of the pyrrolidine- and pyridine-N atoms was followed by observing the variation in chemical shift of the N-1'-methyl and 2'-proton signals from pO 8.8 to pD 3.0. A titration curve of pD vs chemical shift was constructed to determine the pKa values of pyrrolidino-N atom and/or the pyridine-N atom.
as §4, with “Computational Chemistry.” for “pKa Determination.”, “3-(trimethylsilyl)-2,2,3,3-d4” for “3(trimethylsilyl)-2,2,3,3-d4”, “N-1'methyl” for “N-1'-methyl”, “pD” for “pO”

[5] = test system: rabbit caudate nucleus; conditions: cited from earlier work
[6] = test system: rat striatal synaptosomes; conditions: cited from earlier work
[7] = test system: dopamine 2 agonist binding in rat basil ganglia; conditions: in vivo; cited from earlier work
[8] = test system: nicotine receptor; conditions: cited from earlier work
[9] = test system: receptors that contain the α7, α8, or α9 subunits; conditions: cited from earlier work
[10] = animal and human experiments; cited from earlier work
[11] = Ames type assays and chronic exposure studies; cited from earlier work
[12] = test system: skin; conditions: cited from earlier work
[13] = pKa of pyrrolidino-N (N'-amino) functionality
[14] = Table 3, 1 μM, mean ± S.E.M., rat striatal slices
[15] = Table 3, 10 μM, mean ± S.E.M., rat striatal slices
[16] = Table 3, 100 μM, mean ± S.E.M., rat striatal slices

Molecule: C[N+](C)(C)CCCCCC[N+](C)(C)C [hexamethonium]
- effect on IR-rCRH secretion (in words) [1]: This effect was antagonized by the simultaneous presence of atropine and hexamethonium

Molecule: CN1CCC[C@H]1c1cccnc1 [S(-)nicotine, reference compound]
- effect on [3H]DA release / intrinsic agonist activity (in words) [2]: concentration-dependent increase in [^3 H]DA release and was the most potent and efficacious compound; also recorded: concentration-dependent increase in [^3 H]DA release from rat striatal slices
- total [3H]overflow (effect on [3H]DA release) [2]: 2.80 ± 0.28 and 3.24 ± 0.37 and 5.56 ± 0.50
- EC50 ([2]; Rattus norvegicus, read-out: EC50 for nicotine-evoked [3H]DA release): 2000 nM
- nicotine (10 μM)-evoked total [3H]overflow, grand mean [3]: 2.52 ± 0.12
- nicotine (10 μM)-evoked total [3H]overflow, range [3]: 1.03-4.65
- pKa ([4]; pKa of pyridine-N functionality): 3.75
- pKa [4, 13]: 8.4
- effect on basal outflow of GABA [5]: accelerated the basil outflow of gamma-aminobutyric acid (GABA)
- effect on IR-rCRH secretion (in words) [1]: stimulated IR-rCRH secretion in a dose-dependent fashion
- effect on [3H]dopamine release from rat striatal synaptosomes [6]: stimulates the release of [3H]dopamine from rat striatal synaptosomes
- effect of chronic treatment on dopamine 2 agonist binding [7]: decreases dopamine 2 agonist binding in rat basil ganglia

Molecule: CN1[C@@H](CC(=O)c2ccccc2)CCC[C@H]1C[C@H](O)c1ccccc1 [alpha-lobeline]
- agonist/antagonist character [8]: mixed agonist-antagonist

Molecule: CN1[C@@H]2CC[C@H]1C[C@@H](OC(=O)C(CO)c1ccccc1)C2 (stereo partly shown) [atropine]
- effect on IR-rCRH secretion (in words) [1]: This effect was antagonized by the simultaneous presence of atropine and hexamethonium

Molecule: C=CC[n+]1cccc([C@@H]2CCCN2C)c1 [NANI, S-N-allylnicotiniumiodide]
- total [3H]overflow (effect on [3H]DA release) [2, 14]: 0.02 ± 0.02
- total [3H]overflow (effect on [3H]DA release) [2, 15]: 0.07 ± 0.04
- total [3H]overflow (effect on [3H]DA release) [2, 16]: 0.08 ± 0.03
- nicotinic antagonist activity / inhibition of nicotine-evoked [3H]DA release (in words) [3]: Significant antagonist activity; also recorded: significantly lower potency and efficacy; also recorded: possessing antagonist activity; also recorded: preferred nicotinic receptor antagonist activity
- relative order of potency for inhibition of nicotine-evoked [3H]DA release (comparison of IC50 values) [3]: NBNB=NPNI=NnNBI=NANI>NHENI
- pKa [4, 13]: 6.4
- predominant ionization form ([4]; physiological pH): exist predominantly in their unprotonated form at physiological pH

Molecule: α-bungarotoxin
- selective blockade of nicotinic receptors with α7, α8 or α9 subunits [9]: selectively blocks receptors that contain the α7, α8, or α9 subunits

Molecule: C[N+](C)(C)CCOC(N)=O [carbachol]
- effect on IR-rCRH secretion (in words) ([1]; in vitro, p less than 0.05 for antagonists of acetylcholine): stimulated IR-rCRH secretion in a dose-dependent fashion

Molecule: CN1CCCC1=O [N-methyl-2-pyrrolidone]
- irritation or sensitization potential [10]: very little irritation or sensitization potential
- toxicity [11]: have not revealed any significant toxicity
- skin penetration enhancement [12]: effective penetration enhancer

Molecule: O=c1cccc2n1C[C@@H]1CNC[C@H]2C1 [S(-)cytisine, reference compound]
- effect on [3H]DA release / intrinsic agonist activity (in words) [2]: only marginally released dopamine from the striatal slice
- total [3H]overflow (effect on [3H]DA release) [2]: 0.67 ± 0.26 and 0.85 ± 0.38 and 1.13 ± 0.46
- Emax ([2]; Rattus norvegicus, read-out: evoked [3H]DA release relative to nicotine): ~20%
- effect on [3H]dopamine release from rat striatal synaptosomes [6]: lesser effect of cytisine compared to nicotine in evoking dopamine release from rat striatal synaptosomes

Molecule: CN1CCC[C@H]1c1ccc[n+](CCO)c1 [NHENI, S-N-hydroxyethyl nicotinium iodide]
- total [3H]overflow (effect on [3H]DA release) [2, 14]: 0.00 ± 0.00
- total [3H]overflow (effect on [3H]DA release) [2, 15]: 0.00 ± 0.00
- total [3H]overflow (effect on [3H]DA release) [2, 16]: 0.08 ± 0.04
- nicotinic antagonist activity / inhibition of nicotine-evoked [3H]DA release (in words) [3]: Significant antagonist activity; also recorded: preferred nicotinic receptor antagonist activity
- relative order of potency for inhibition of nicotine-evoked [3H]DA release (comparison of IC50 values) [3]: NHENI>>>(±)di-N-allyl nicotinium iodide (DNANI)

Molecule: CNC1(C)C2CCC(C2)C1(C)C (stereo not shown) [MEC, mecamylamine, reference compound]
- total [3H]overflow (effect on [3H]DA release) [2, 14]: 0.00 ± 0.00
- total [3H]overflow (effect on [3H]DA release) [2, 15]: 0.00 ± 0.00
- total [3H]overflow (effect on [3H]DA release) [2, 16]: 0.00 ± 0.00
- effect on [3H]DA release / intrinsic agonist activity (in words) ([2]; rat striatal slices, 1-100 μM): None of the compounds examined, including DHBE and mecamylmine, had any significant effect on [^3 H]DA release in the concentration range of 1-10 μM
- nicotinic antagonist activity / inhibition of nicotine-evoked [3H]DA release (in words) [3]: inhibited but did not completely block nicotine's effect
- relative order of potency for inhibition of nicotine-evoked [3H]DA release (comparison of IC50 values) [3]: DHBE=MEC>>NBNB

Molecule: CCCC[n+]1cccc([C@@H]2CCCN2C)c1 [NnBNI, S-N-nbutyl nicotinium iodine]
- total [3H]overflow (effect on [3H]DA release) [2, 14]: 0.00 ± 0.00
- total [3H]overflow (effect on [3H]DA release) [2, 15]: 0.01 ± 0.01
- total [3H]overflow (effect on [3H]DA release) [2, 16]: 0.01 ± 0.01
- nicotinic antagonist activity / inhibition of nicotine-evoked [3H]DA release (in words) [3]: Significant antagonist activity; also recorded: significantly lower potency and efficacy; also recorded: preferred nicotinic receptor antagonist activity
- relative order of potency for inhibition of nicotine-evoked [3H]DA release (comparison of IC50 values) [3]: NBNB=NPNI=NnNBI=NANI>NHENI

Molecule: CN1C(=O)CC[C@H]1c1ccc[n+](C)c1 [NMCI, S-N-methylcotininium iodide]
- total [3H]overflow (effect on [3H]DA release) [2, 14]: 0.00 ± 0.00
- total [3H]overflow (effect on [3H]DA release) [2, 15]: 0.01 ± 0.01
- total [3H]overflow (effect on [3H]DA release) [2, 16]: 0.02 ± 0.01
- nicotinic antagonist activity / inhibition of nicotine-evoked [3H]DA release (in words) [3]: did not exhibit significant nicotinic antagonist activity over the concentration range tested; also recorded: devoid of antagonist activity
- relative order of potency for inhibition of nicotine-evoked [3H]DA release (comparison of IC50 values) [3]: NMNI=S-N-methylcotininium iodide (NMCI)=S-N'-methyl nicotinium iodide (PIPNMN)
- total [3H]overflow during cosuperfusion with 10 μM nicotine [3]: 3.11 ± 1.32 and 3.11 ± 1.20 and 3.75 ± 1.66
